Assay results as given in patent US10906909B2, “Treatment of cognitive and mood symptoms in neurodegenerative and neuropsychiatric disorders with ALPHA5-containing GABAA receptor agonists” (UWM Research Foundation, Inc., priority 2016, dated 2021).
“Also recorded” adds a separate entry of the source.

Experiments:
mice = experiment: Home cage locomotor activity in mice; format: in vivo, mouse; details: vs vehicle
Protocol: Mice were placed in a clean cage, similar to their home-cage (28.2×17.1 cm), without bedding and lid to allow video recording from the top. Tacking was performed and distance travelled (30 min session) was analyzed using ANY-Maze™ tracking software (version 499z) to assess the locomotor activity in a home-cage environment. Animals received a single dose of compound or vehicle solution 1 hour before testing.
Drug preparation and administration: All drugs were diluted in a vehicle solution containing 85% H2O, 14% propylene glycol (Sigma Aldrich) and 1% Tween 80 (Sigma Aldrich). Working solutions were prepared at a concentration of 20 mg/mL and administered i.p. adjusted to the body weight of each animal. Doses used were either 1, 5 or 10 mg/kg. For all locomotor activity experiments, animals were acutely injected i.p. with vehicle or αPAM, 1 hour before the beginning of the test.

C57B1/6 male mice = experiment: Forced swim test (FST); format: in vivo, mouse; details: vs vehicle
Protocol: C57B1/6 male mice were ordered from Jackson Laboratories at 8 weeks-old and were group housed (4-5 mice/cage) under normal housing conditions (12 h light ON cycle starting at 7 am/water and food ad libitum) for one week. During this week, animals were handled in order to habituate them to the experimenter and to reduce their anxiety-like response during behavioral testing.
All drugs were diluted in a vehicle solution containing 85% H2O, 14% propylene glycol (Sigma Aldrich) and 1% Tween 80 (Sigma Aldrich). Working solutions were prepared at a concentration of 20 mg/mL and administered i.p. adjusted to the body weight of each animal. Doses used were either 1, 5 or 10 mg/kg. For all FST experiments, animals were injected i.p. with vehicle or αPAM.
Mice were tested in the forced swim test (FST) (measure of despair-like behavior used for the assessment of antidepressant efficacy). Animals were sub-chronically injected three times (24, 20 and 1 hour before testing) as per standard methods in the field for testing potential antidepressant compounds.
One hour after the last injection, mice were placed in an inescapable transparent tank filled with water (25 cm, 25-26° C.), where they are unable to touch the bottom and unable to jump out of the tank. Animal were recorded for a period of 6 minutes and a manual count of the immobile time in the tank was measured for the 2-6 minutes period by an experimenter blinded to the mouse treatment history. Immobility is defined as the minimum amount of movement to stay afloat. Compounds that reduced immobility in the FST are considered to have potential antidepressant actions.

[1] = biological target: T1, alpha 5 subunit GABAA receptor (Rattus norvegicus, UniProt P18508+P19969); experiment: Electrophysiology, whole-cell patch clamp in transfected HEK-293T cells; format: cell-based; details: for percent of response to GABA: 1 μM compound, HEK-293T cells transfected with alpha 5 subunit; for relative size of response to GABA among the four compounds: 1 μM, alpha 5, FIG. 26
T1 construct: Full-length cDNAs for GABAA receptor subtypes; expressed in transfected cells; host or cells: HEK-293T (GenHunter, Nashville, Tenn.), transient calcium phosphate transfection
T1 sequence (P19969 32-464 limits assumed): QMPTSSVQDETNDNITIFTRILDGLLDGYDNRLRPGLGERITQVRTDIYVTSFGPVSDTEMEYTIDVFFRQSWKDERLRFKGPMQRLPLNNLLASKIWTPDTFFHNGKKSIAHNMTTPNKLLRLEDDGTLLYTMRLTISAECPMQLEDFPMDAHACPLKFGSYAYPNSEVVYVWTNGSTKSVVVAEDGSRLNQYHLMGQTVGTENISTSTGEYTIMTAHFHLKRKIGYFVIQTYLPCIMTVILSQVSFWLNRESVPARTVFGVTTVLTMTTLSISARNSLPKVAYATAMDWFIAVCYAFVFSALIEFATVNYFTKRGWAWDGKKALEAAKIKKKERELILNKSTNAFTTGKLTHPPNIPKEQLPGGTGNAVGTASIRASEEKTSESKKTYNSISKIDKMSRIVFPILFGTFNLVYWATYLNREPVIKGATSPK
T1 sequence (P63079 26-473 partner): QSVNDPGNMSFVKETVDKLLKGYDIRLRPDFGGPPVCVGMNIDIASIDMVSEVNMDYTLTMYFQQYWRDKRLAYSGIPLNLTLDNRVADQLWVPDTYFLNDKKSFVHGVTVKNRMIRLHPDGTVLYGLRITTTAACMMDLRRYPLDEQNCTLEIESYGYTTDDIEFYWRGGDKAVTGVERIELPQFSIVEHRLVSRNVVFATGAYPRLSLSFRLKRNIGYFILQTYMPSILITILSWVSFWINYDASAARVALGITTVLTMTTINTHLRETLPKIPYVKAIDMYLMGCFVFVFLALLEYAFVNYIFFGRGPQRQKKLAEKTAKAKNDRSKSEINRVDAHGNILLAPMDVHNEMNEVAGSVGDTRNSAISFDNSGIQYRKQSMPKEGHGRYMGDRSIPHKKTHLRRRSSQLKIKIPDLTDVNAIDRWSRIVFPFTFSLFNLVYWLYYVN
T1 sequence (P18508 39-466): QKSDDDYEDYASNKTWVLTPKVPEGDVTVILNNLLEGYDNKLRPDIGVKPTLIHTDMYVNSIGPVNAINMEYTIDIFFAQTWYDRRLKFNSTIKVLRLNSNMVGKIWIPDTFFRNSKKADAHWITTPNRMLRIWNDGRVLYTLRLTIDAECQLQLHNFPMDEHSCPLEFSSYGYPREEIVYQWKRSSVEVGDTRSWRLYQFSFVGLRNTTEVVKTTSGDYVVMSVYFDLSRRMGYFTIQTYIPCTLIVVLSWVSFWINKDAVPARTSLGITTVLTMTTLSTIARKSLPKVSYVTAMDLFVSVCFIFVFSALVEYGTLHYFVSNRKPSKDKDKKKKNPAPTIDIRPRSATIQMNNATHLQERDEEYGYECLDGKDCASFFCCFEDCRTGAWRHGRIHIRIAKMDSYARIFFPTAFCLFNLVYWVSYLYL
Text: Transfection of Mammalian Cells and Electrophysiological Recordings. Full-length cDNAs for GABAA receptor subtypes (generously provided by Dr. Robert Macdonald, Vanderbilt University and Dr. David Weiss, University of Texas Health Science Center, San Antonio, Tex.) in mammalian expression vectors were transfected into the human embryonic kidney cell line HEK-293T (GenHunter, Nashville, Tenn.) (Chestnut et al, 1996, J. Immunol. Methods 193, 17-27). All subtypes were rat clones except for α2, which was a human clone. Cells were maintained in Dulbecco's modified Eagle's medium (DMEM) plus 10% fetal bovine serum, 100 IU/mL penicillin, and 100 μg/mL streptomycin.
HEK-293T cells were transiently transfected using calcium phosphate precipitation. Plasmids encoding GABAA receptor subtype cDNAs were added to the cells in 1:1:1 ratios (α:β:γ) of 2 μg each.31 For identification of positively transfected cells, 1 μg of the plasmid pHook-1 (Invitrogen Life Technologies, Grand Island N.Y.) containing cDNA encoding the surface antibody sFv was also transfected into the cells.11 Following a 4-6 h incubation at 3% CO2, the cells were treated with a 15% glycerol solution in BBS buffer (50 mM BES(N,N-bis[2-hydroxyethyl]-2-aminoethanesulfonic acid), 280 mM NaCl, 1.5 mM Na2HPO4) for 30 s. The selection procedure for pHook expression was performed 18-52 h later. The cells were passaged and mixed for 30-60 min with 3-5 μL of magnetic beads coated with antigen for the pHook antibody (approximately 6×105 beads).11 Bead-coated cells were isolated using a magnetic stand. The selected cells were resuspended into supplemented DMEM, plated onto glass coverslips treated with poly L-lysine and collagen, and used for recordings the next day.
Cells were patch-clamped at −50 mV in the whole-cell recording configuration. The bath solution consisted of (in mM): 142 NaCl, 8.1 KCl, 6 MgCl2, 1 CaCl2), and 10 HEPES (4-(2-hydroxyethyl)-1-piperazineethanesulfonic acid) with pH=7.4 and osmolarity adjusted to 295-305 mOsm. Recording electrodes were filled with a solution of (in mM) 153 KCl, 1 MgCl2, 5 K-EGTA (ethylene glycol-bis(β-aminoethyl ether N,N,N′N′-tetraacetate), and 10 HEPES with pH=7.4 and osmolarity adjusted to 295-305 mOsm. GABA was diluted into the bath solution from freshly made or frozen stocks in water. Compounds were dissolved in DMSO and diluted into bath solution with the highest DMSO level applied to cells of 0.01%. Patch pipettes were pulled from borosilicate glass (World Precision Instruments, Sarasota, Fla.) on a two-stage puller (Narishige, Japan) to a resistance of 5-10 MO. Solutions containing GABA or GABA+ compounds were applied to cells for 5 s. using a 3-barrelled solution delivery device controlled by a computer-driven stepper motor (SF-77B, Harvard Apparatus, Holliston, Mass., open tip exchange time of <50 ms). There was a continuous flow of external solution through the chamber. Currents were recorded with an Axon 200B (Foster City, Calif.) patch clamp amplifier.
Whole-cell currents were analyzed using the programs Clampfit (pClamp9 suite, Axon Instruments, Foster City, Calif.) and Prism (Graphpad, San Diego, Calif.). Concentration-response data was fit with a four-parameter logistic equation (current=[minimum current+(maximum current−minimum current)]/1+(10(logEC50−log[modulator])n) where n represents the Hill number. All fits were made to normalized data with current expressed as a percentage of the response to GABA alone for each cell.

[2] = 10 mg/kg i.p. 24, 20, 1 hour before testing
[3] = 1 mg/kg i.p. 60 min before testing
[4] = 5 mg/kg i.p. 60 min before testing
[5] = 10 mg/kg i.p. 60 min before testing
[6] = 5 mg/kg i.p. 24, 20, 1 hour before testing

Row | Structure (SMILES) | locomotor activity (distance travelled, 30 min session) (mice; i.p. 60 min before testing, dose not given) | time spent immobile in the FST (C57B1/6 male mice; [2]) | locomotor activity (distance travelled, 30 min session) (mice; [3]) | locomotor activity (distance travelled, 30 min session) (mice; [4]) | locomotor activity (distance travelled, 30 min session) (mice; [5]) | percent of response to GABA [1] | relative size of response to GABA among the four compounds [1] | time spent immobile in the FST (C57B1/6 male mice; [6])
1 | C#Cc1ccc2c(c1)C(c1ccccc1F)=N[C@H](C)c1c(C(=O)NC)ncn1-2 [MP-III-022] | no significant difference; also recorded: no effect | significant decrease in immobility time; also recorded: significant antidepressant-like action | – | – | – | – | – | –
2 | C#Cc1ccc2c(c1)C(c1ccccc1F)=N[C@H](C)c1c(C(=O)NCC)ncn1-2 [GL-II-74, (R)—N-ethyl-8-ethynyl-6-(2-fluorophenyl)-4-methyl-4H-benzo[f]imidazo[1,5-a][1,4]diazepine-3-carboxamide] | – | significantly decreased the immobility; also recorded: significant antidepressant-like efficacy | no significant effect; also recorded: no effect on locomotor activity | no significant effect; also recorded: no effect on locomotor activity | significant increase in locomotion; also recorded: significant increase in distance traveled | increased in the percent of response to GABA | greatest response | significantly decreased the immobility; also recorded: significant antidepressant-like efficacy
3 | C#Cc1ccc2c(c1)C(c1ccccc1F)=N[C@H](C)c1c(C(=O)N3CCCC3)ncn1-2 [GL-II-76, (R)-(8-ethynyl-6-(2-fluorophenyl)-4-methyl-4H-benzo[f]imidazo[1,5-a][1,4]diazepin-3-yl)(pyrrolidin-1-yl)methanone] | – | – | – | – | – | increased in the percent of response to GABA | – | –
4 | C#Cc1ccc2c(c1)C(c1ccccc1F)=N[C@H](C)c1c(C(=O)NC3CC3)ncn1-2 [GL-II-75, (R)—N-cyclopropyl-8-ethynyl-6-(2-fluorophenyl)-4-methyl-4H-benzo[f]imidazo[1,5-a][1,4]diazepine-3-carboxamide] | – | significantly decreased the immobility; also recorded: significant antidepressant-like efficacy | significant increase in locomotion; also recorded: significant increase in distance traveled | no significant effect; also recorded: no effect on locomotor activity | significant increase in locomotion; also recorded: significant increase in distance traveled | increased in the percent of response to GABA | greatest response | significantly decreased the immobility; also recorded: significant antidepressant-like efficacy
5 | C#Cc1ccc2c(c1)C(c1ccccc1F)=N[C@H](C)c1c(C(=O)N(C)C)ncn1-2 [GL-II-73, (R)-8-ethynyl-6-(2-fluorophenyl)-N,N,4-trimethyl-4H-benzo[f]imidazo[1,5-a][1,4]diazepine-3-carboxam] | – | significantly decreased the immobility; also recorded: significant antidepressant-like efficacy | no significant effect; also recorded: no effect on locomotor activity | significant increase in locomotion; also recorded: significant increase in distance traveled | significant increase in locomotion; also recorded: significant increase in distance traveled | increased in the percent of response to GABA | greatest response | –
6 | C#Cc1ccc2c(c1)C(c1ccccc1F)=N[C@@H](C)c1c(C(=O)N(C)C)ncn1-2 [GL-I-54, (S)-8-ethynyl-6-(2-fluorophenyl)-N,N,4-trimethyl-4H-benzo[f]imidazo[1,5-a][1,4]diazepine-3-carboxamide] | – | – | – | – | – | – | – | significant decrease in immobility time; also recorded: significant antidepressant-like action
